Laboratory results published in patent US8304417B2, “Crystalline forms of 4-(6-chloro-2,3-methylenedioxyanilino)-7-[2-(4-methylpiperazin-1-yl)ethoxy]-5-tetrahydropyran-4-yloxyquinazoline” (AstraZeneca AB, priority 2004, dated 2012).
Entries after “also recorded” stand apart in the source; their conditions may differ.

Assays:
[1] = Solid-state form stability (storage, presence or absence of water); type: physicochemical
[2] = Hygroscopicity of the crystalline form (exposure to water vapour); type: physicochemical; conditions: solid form, exposure to water vapour during storage

Compound	stability of the physical form [1]	hygroscopicity [2]
CN1CCN(CCOc2cc(OC3CCOCC3)c3c(Nc4c(Cl)ccc5c4OCO5)ncnc3c2)CC1.O.O.O [AZD0530 trihydrate, 4-(6-chloro-2,3-methylenedioxyanilino)-7-[2-(4-methylpiperazin-1-yl)ethoxy]-5-tetrahydropyran-4-yloxyquinazoline trihydrate]	stable in the presence of water	–
4-(6-chloro-2,3-methylenedioxyanilino)-7-[2-(4-methylpiperazin-1-yl)ethoxy]-5-tetrahydropyran-4-yloxyquinazoline sesquifumarate salt [AZD0530 sesquifumarate tetrahydrate]	of reasonable stability	–
CN1CCN(CCOc2cc(OC3CCOCC3)c3c(Nc4c(Cl)ccc5c4OCO5)ncnc3c2)CC1.O=C(O)/C=C/C(=O)O.O=C(O)/C=C/C(=O)O [AZD0530 difumarate, 4-(6-chloro-2,3-methylenedioxyanilino)-7-[2-(4-methylpiperazin-1-yl)ethoxy]-5-tetrahydropyran-4-yloxyquinazoline difumarate salt]	does not readily change form during storage if exposed to water vapour	substantially non-hygroscopic
CN1CCN(CCOc2cc(OC3CCOCC3)c3c(Nc4c(Cl)ccc5c4OCO5)ncnc3c2)CC1 [anhydrous AZD0530, 4-(6-chloro-2,3-methylenedioxyanilino)-7-[2-(4-methylpiperazin-1-yl)ethoxy]-5-tetrahydropyran-4-yloxyquinazoline]	very stable in the absence of water; also recorded: prone to convert to AZD0530 trihydrate during storage if substantially anhydrous storage conditions are not maintained	–
